Data taken from patent US20240376098A1, “METHODS OF TREATMENT USING BCN057, BCN077 AND ANALOGS” (BCN Biosciences L.L.C., priority 2021, published 2024).

Legend:
[1] = system: pancreatic ductal adenocarcinoma cells (AsPC-1, BxPC-3, MIA PaCa-2 and Panc-1); details: range over AsPC-1, BxPC-3, MIA PaCa-2 and Panc-1; limits printed in nM and μM; cited from earlier work
[2] = system: PD-1 expression on human T-lymphocytes; assay: Western blot of PD-1 on T-lymphocytes co-cultured with Panc-1 cells; type: cell-based; details: 15 minutes to 24 hours
Protocol: Cell lines and cell culture: Panc-1 cells were cultured in DMEM medium supplemented with 10% Fetal Bovine Serum and maintained at 37° C.5% CO2. Human Peripheral Blood Pan-T Cells were cultured in serum free T cells expansion media with 10 ng/ml of rhIL-2, T-cell activator and expanded as per the manufacturer instructions. Panc-1 cells and T-Cells were grown and expanded separately in T75 flasks. For co-culture experiments with Panc-1 cell, 2.5 million T-cells per well were plated in the well using a 6 well plate. 2.5 million Panc-1 Cells were plated in the thinsert which was placed into the well of the 6 well plate in order to have the cells physically separated but share media. The cells were incubated for 24 hours at 37° C., 5% CO2. At 24 hours the media was replaced with media containing vehicle, or 10 uM BCN057 and were incubated for the following timepoints: 1 hr, 6 hr, 12 hr, 24 hrs. The Panc-1 cells were removed by gently scraping the cells from the thinsert.
Western Blot: Cells were harvested and lysed in cell lysis buffer on ice for 15 minutes and the lysate was centrifuged at 13,000 rpm at 4° C. for 10 minutes. The supernatant was transferred into a new tube for BCA protein quantification assay (Thermo Fisher Scientific) and the samples were normalized. 3× loading buffer (Cell Signaling) was added the protein sample and boiled for 5 minutes. The samples were used for SDS-PAGE analysis and transferred to nitrocellulose membrane. The membrane was blocked with 5% BSA at room temperature for 1 hour and incubated with primary antibody at 4° C. overnight. The membrane was washed with 1×TBST 5 minutes for 3 times and incubated with horseradish peroxidase-conjugated secondary antibody for 1 hour at room temperature. The protein was visualized by SuperSignal West Pico Stable Peroxide Solution (Thermo Fisher Scientific). The blot was visualized by chemiluminescence using a BioRad Versadoc Imaging System.
BCN057 and Immune Checkpoint blockade: An emerging method of treatment for many forms of cancer, including PDAC, is immune checkpoint inhibitors. […]

[3] = system: KRAS mutant G12D invasive pancreatic cancer cell lines; assay: Proliferation of pancreatic cancer cell lines with analogues of BCN057; type: cell-based
Lgr5+ ISCs = assay: Lgr5+ intestinal stem cells in 5FU treated Lgr5-Cre-ERT-GFP mice; type: in vivo; details: 5FU treated mice, confocal microscopic imaging
Protocol: 5FU is a component of FOLFIRINOX and the active agent metabolized from Capecitabine (Xeloda®). To, examine the effect of BCN057 against chemo induced toxicity in Lgr5+ ISCs, Lgr5-Cre-ERT-GFP mice were pre-treated with 5FU as reported and then subjected to BCN057 treatment.
Stains of GI crypts with green=LGR5+ stem cells. Mice were treated with 5FU and 5FU+BCN057 for 5 days. BCN057 was administered for two extra days after 5FU treatment. Small intestine samples were harvested and stained for LGR5 at 3 days after the last 5FU injection. FIG. 5D is a histogram of the quantitation by % of LGR5+ cells remaining in […] sections at the crypt base showing prevention of 5-FU induced apoptosis in LGR5+ stem cells in GI.

[4] = system: human KRAS G12D mutant colorectal cancer cell line LS174T; assay: Viability of LS174T colorectal cancer cells; type: cell-based; details: viability versus concentration
Description: FIG. 9 is a graph of viability versus concentration of BCN077.

| Structure (SMILES) | PD1 expression in co-culture of T-cells and Panc1 cells [2] | Proliferation of KRAS mutant G12D invasive pancreatic cancer cell lines [3] | also measured |
| --- | --- | --- | --- |
| Nc1ccn([C@@H]2O[C@H](CO)[C@@H](O)C2(F)F)c(=O)n1 [gemcitabine] |  |  | IC50 [1]: 494 to 23900 nM |
| CNCCC(=O)Nc1c(-c2cc3ccc(OC)cc3[nH]c2=O)nc2c(C)cccn12.Cl [BCN076] | inhibit PD1 expression over time | inhibition of proliferation |  |
| O=c1[nH]cc(F)c(=O)[nH]1 [5FU, 5-Fluorouracil, reference compound] |  |  | Lgr5+ ISCs in jejunal section (Lgr5+ ISCs): significant loss of Lgr5+ ISCs |
| CONCCC(=O)Nc1c(-c2cc3ccc(OC)cc3[nH]c2=O)nc2c(C)cccn12 [BCN036] | inhibit PD1 expression over time | inhibition of proliferation |  |
| COc1ccc2cc(-c3nc4c(C)cccn4c3NC(=O)c3cccc(F)c3)c(=O)[nH]c2c1 [BCN077] |  | inhibition of proliferation | Activity on viability of LS174T [4]: potent activity |
